In one data set the target is T1, human topoisomerase I (Homo sapiens, UniProt P11387).
T1 sequence (P11387 1-765): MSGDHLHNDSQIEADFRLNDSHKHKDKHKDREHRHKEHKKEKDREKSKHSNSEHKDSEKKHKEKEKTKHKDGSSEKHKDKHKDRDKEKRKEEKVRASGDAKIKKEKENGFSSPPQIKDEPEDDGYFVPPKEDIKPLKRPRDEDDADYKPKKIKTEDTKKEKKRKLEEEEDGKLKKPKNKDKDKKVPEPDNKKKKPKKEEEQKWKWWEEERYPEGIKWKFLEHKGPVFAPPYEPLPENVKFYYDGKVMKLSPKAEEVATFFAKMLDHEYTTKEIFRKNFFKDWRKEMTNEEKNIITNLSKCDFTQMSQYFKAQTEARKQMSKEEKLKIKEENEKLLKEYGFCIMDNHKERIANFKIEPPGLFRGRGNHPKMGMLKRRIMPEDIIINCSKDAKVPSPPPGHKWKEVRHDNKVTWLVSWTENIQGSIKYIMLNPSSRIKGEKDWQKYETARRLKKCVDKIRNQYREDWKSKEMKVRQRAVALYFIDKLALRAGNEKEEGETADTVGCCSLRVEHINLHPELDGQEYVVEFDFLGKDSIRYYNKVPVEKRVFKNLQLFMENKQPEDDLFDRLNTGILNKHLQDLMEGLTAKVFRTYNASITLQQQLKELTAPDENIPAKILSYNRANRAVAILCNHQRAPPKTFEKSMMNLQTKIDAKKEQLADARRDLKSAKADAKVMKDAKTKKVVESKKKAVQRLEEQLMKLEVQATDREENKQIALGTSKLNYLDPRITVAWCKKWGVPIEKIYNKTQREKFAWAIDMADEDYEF
Briefly: Topoisomerase I relaxation assay (human). It counts as biochemical.

In the next data set the target is T2, calf topoisomerase I (Bos taurus, UniProt F1MN93).
T2 sequence (F1MN93 1-767): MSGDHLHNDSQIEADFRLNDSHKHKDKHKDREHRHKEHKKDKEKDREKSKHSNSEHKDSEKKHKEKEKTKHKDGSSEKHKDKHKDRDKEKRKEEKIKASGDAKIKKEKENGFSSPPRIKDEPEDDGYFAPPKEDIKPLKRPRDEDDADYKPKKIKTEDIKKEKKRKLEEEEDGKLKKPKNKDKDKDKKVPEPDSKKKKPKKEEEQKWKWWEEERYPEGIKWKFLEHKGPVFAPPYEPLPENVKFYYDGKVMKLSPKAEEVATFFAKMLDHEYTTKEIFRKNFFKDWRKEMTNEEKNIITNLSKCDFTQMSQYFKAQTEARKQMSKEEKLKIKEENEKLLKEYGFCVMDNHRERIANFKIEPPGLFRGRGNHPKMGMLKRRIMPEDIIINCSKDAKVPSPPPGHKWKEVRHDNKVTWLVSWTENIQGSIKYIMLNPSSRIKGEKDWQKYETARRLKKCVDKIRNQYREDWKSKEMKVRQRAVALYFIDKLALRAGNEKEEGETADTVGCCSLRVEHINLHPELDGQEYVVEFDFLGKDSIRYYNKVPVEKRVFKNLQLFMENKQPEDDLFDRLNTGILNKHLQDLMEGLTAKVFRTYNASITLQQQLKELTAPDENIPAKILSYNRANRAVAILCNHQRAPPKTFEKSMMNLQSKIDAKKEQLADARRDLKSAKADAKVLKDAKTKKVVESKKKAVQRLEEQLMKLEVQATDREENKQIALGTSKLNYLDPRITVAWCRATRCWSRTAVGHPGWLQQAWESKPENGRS
Briefly: Topoisomerase I relaxation assay (calf). It counts as biochemical. The note with it: Table 1, calf enzyme, read-out: Topo I (c) IC50 (converted).

The target of the next data set is E. coli DNA gyrase (Escherichia coli, UniProt P0AES4+P0AES6). Briefly: DNA gyrase supercoiling assay. It counts as biochemical. The note with it: Table 1.
Sequence of E. coli DNA gyrase (P0AES4 whole entry, one chain of several): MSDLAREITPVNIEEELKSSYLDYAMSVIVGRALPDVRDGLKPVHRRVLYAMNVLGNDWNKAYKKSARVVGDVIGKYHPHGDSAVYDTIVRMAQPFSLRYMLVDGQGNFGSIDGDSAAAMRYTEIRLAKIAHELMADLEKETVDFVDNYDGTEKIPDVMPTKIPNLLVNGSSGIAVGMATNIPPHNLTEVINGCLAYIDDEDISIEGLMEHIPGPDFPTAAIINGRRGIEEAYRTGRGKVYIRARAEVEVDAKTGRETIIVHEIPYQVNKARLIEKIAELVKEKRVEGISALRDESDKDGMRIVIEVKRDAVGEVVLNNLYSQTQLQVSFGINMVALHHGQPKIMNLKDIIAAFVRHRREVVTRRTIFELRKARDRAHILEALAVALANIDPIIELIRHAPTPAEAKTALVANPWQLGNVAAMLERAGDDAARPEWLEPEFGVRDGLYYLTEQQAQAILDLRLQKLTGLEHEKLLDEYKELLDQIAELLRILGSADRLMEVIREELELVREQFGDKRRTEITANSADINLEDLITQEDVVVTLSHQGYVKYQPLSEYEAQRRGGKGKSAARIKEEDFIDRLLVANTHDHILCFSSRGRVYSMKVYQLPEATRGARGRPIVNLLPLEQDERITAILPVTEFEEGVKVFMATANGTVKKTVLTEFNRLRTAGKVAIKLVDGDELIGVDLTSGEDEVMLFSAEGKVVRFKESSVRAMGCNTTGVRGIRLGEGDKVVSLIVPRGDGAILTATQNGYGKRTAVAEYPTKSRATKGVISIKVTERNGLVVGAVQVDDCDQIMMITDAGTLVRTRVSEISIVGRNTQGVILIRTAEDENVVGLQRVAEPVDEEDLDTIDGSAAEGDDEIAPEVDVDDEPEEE
A further data set can be described thus: Aqueous solubility. The format is physicochemical.
Data set [1] is described as follows: In vivo toxicity study (maximum tolerated dose). The note with it: daily intraperitoneal, up to 30 mg/kg for 3 weeks. As to the method: (§1) In vivo toxicity studies were performed to establish the maximum tolerated dose of 217 and 227 in mice. […] A proof of concept efficacy study was also conducted in mice with 217 and 227. Based on the in vitro susceptibility to 217 and 227, and the availability of the established xenograft models, a colon cancer (HT-29) xenograft model was used.

The target of data set [2] is T3, human topoisomerase II (Homo sapiens, UniProt P11388). Briefly: Topoisomerase II decatenation assay. It counts as biochemical.
T3 sequence (P11388 whole entry): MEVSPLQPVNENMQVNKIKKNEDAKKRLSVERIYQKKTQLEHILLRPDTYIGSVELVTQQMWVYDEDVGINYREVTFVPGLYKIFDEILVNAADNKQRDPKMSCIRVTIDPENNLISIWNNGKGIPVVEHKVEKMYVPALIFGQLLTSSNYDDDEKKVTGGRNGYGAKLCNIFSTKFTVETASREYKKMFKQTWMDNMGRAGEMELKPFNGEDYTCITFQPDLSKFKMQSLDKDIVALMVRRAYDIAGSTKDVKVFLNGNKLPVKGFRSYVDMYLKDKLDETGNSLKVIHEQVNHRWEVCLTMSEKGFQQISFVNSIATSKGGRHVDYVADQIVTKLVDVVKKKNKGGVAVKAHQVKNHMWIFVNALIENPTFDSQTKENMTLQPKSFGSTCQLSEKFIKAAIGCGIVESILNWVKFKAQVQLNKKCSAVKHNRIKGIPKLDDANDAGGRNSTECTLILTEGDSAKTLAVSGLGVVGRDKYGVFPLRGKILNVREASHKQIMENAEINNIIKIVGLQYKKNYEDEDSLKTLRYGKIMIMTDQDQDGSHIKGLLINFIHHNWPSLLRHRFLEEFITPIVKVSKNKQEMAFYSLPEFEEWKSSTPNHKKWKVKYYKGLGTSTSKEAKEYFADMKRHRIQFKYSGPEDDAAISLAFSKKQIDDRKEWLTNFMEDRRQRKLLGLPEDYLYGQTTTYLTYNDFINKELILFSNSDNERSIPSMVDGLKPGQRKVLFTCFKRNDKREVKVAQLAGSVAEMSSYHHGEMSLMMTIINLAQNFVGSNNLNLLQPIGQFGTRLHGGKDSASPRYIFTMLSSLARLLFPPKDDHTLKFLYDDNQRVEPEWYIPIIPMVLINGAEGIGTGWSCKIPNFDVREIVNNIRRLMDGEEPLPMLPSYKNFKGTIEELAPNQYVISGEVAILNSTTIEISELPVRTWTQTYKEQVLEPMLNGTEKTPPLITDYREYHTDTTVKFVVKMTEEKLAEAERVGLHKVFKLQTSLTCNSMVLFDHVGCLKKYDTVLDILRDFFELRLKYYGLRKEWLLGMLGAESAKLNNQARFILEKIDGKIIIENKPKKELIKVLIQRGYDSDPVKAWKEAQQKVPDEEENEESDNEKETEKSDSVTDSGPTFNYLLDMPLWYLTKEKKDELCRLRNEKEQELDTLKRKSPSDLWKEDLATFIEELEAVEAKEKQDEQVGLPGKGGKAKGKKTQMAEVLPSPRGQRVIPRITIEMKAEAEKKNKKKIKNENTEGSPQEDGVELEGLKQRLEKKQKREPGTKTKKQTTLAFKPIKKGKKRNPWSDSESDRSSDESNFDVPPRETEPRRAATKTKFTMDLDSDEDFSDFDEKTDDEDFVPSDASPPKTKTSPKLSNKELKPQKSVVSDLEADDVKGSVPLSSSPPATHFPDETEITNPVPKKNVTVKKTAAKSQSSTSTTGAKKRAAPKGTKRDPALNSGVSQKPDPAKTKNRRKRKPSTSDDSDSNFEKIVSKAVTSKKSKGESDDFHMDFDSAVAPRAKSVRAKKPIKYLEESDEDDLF
Another data set concerns 60 cancer cell lines. Briefly: NCI 60 DTP Human Tumor Cell Line Screen. The note with it: for GI50: Homo sapiens, against the 60 cancer cell lines; for comparison of GI50 and LD50 values with etoposide (NCI's COMPARE program): majority of the 60 cancer cell lines; for mean growth: single dose (10 μM) screening. The format is cell-based. An excerpt:
Both 217 and 227 were submitted to the NCI for the 60 DTP Human Tumor Cell Line Screen.

In data set [3] the target is T3, human topoisomerase II. Briefly: DNA cleavage assay (topoisomerase II poisoning). The format is biochemical. The note with it: various concentrations; FIG. 1. From the text:
(§2) Topoisomerase poisoning results in the accumulation of covalent topoisomerase-DNA complexes, which can be detected as the generation of nicked and/or linear DNA in DNA cleavage assays. Poisoning of human topoisomerase II generate double-strand breaks that lead to the development of therapy-related acute myeloid leukemia.

Data set [4] deals with mammalian topoisomerase I. Briefly: Topoisomerase I poisoning (DNA cleavage). It counts as biochemical.
Text: as §2

The test system of data set [5] is colon cancer (HT-29) xenograft. Briefly: Colon cancer (HT-29) xenograft efficacy study. The format is in vivo, mice. The note with it: 3-week treatment, FIG. 2. The method, then: as §1
The test system of data set [6] is colon (HT-29) and leukemia (K-562) cell lines. Briefly: MTT anti-proliferative assay. It counts as cell-based. The note with it: HT-29 and K-562. As to the method:
An MTT assay was performed with 277 and with the following compounds:
[drawing 68] against colon (HT-29) and leukemia (K-562) cell lines to determine their in vitro anti-proliferative activities.
(Tetrazolium dyes change colour on reduction, which living cells bring about.)

Where [7] appears, read: Table 2, relaxation assay, read-out: Topo I IC50.
The mark [8] stands for this setting: Table 1, decatenation assay, read-out: Topo II IC50.
Setting [9] is: Table 2, decatenation assay, read-out: Topo II IC50.
[10] abbreviates: read-out: IC50 human topoisomerase II in the decatenation assay.
[11] abbreviates: Table 1, human enzyme, relaxation assay, read-out: Topo I (h) IC50.
Setting [12] is: read-out: IC50 human topoisomerase I in the relaxation assay.

Read-outs that look alike come from different tables or passages of the source.

Consider nine molecules from patent publication US10981875B2, “Quinolone-based compounds with anticancer activity” (Regents of the University of Minnesota, priority 2016, dated 2021).

A word on the IC50: it is the concentration at which inhibition is half-maximal. As for `COc1c(N2C[C@@H]3CCCN[C@@H]3C2)c(F)cc2c(=O)c(C(=O)O)cn(Cc3ccc4ccccc4c3)c12` [Compound 213], the IC50 on human topoisomerase I (setting [7]) came to 127.9 ± 0.8 µM.
Still for that read-out and setting: as for `COc1c(N2CCNCC2)c(F)cc2c(=O)c(C(=O)O)cn(Cc3ccc(-c4ccccc4)cc3)c12` [Compound 207], the figure is 54.2 ± 3.2 µM.
Same read-out and setting: as for `NC[C@@H]1CCN(c2cc3c(cc2F)c(=O)n(N)c(=O)n3Cc2ccc(-c3ccccc3)cc2)C1` [Compound 215a], the figure is 25.9 ± 5.4 µM; as for `NC[C@@H]1CCN(c2cc3c(cc2F)c(=O)n(N)c(=O)n3Cc2ccc3ccccc3c2)C1` [Compound 213a], 59 ± 2.9 µM.
Same read-out and setting: as for `COc1c(N2C[C@@H]3CCCN[C@@H]3C2)c(F)cc2c(=O)c(C(=O)O)cn(Cc3ccc(-c4ccccc4)cc3)c12` [Compound 205], the figure is 44.4 ± 0.8 µM; as for `COc1c(N2CCNCC2)c(F)cc2c(=O)c(C(=O)O)cn(Cc3ccc4ccccc4c3)c12` [Compound 215], 132 ± 3.5 µM.
A word on the GI50: it is the concentration at which growth is held to half of that of the control. A high value points to less potent growth inhibition. Take `COc1c(N2CC[C@@H](CN)C2)c(F)cc2c(=O)c(C(=O)O)cn(Cc3ccc4ccccc4c3)c12` [Compound 227, (S)-7-(3-(aminomethyl)pyrrolidin-1-yl)-6-fluoro-8-methoxy-1-(naphthalen-2-ylmethyl)-4-oxo-1,4-dihydroquinoline-3-carboxylic acid]: the IC50 on calf topoisomerase I is 66.6 µM; at E. coli DNA gyrase it was greater than 200 µM; at human topoisomerase II [2] (setting [8]), 165 ± 20.2 µM; at human topoisomerase II [2] (setting [9]) it was 165 ± 20.2 µM; at human topoisomerase II [2] (setting [10]), 165 µM; on human topoisomerase I (setting [11]) it was 43.7 ± 0.6 µM. In addition, the IC50 on human topoisomerase I (setting [12]) turned out to be 43.1 µM. Further, the aqueous solubility entry in the data set “Aqueous solubility” is “limited aqueous solubility”. The “effect on animal weight gain” value in data set [1] was “did not have any significant effect on animal weight gain”. In data set [1], the tolerability entry is recorded as “well-tolerated”. The molecule further displayed a GI50 in the data set with 60 cancer cell lines of 3.1 µM. Further, the “comparison of GI50 and LD50 values with etoposide (NCI's COMPARE program)” value in the data set on 60 cancer cell lines was “significantly more effective than etoposide”. The molecule also yielded a mean growth in the data set with 60 cancer cell lines of 44.1%. For the same molecule, on human topoisomerase II [3], the “increase in the amounts of linear DNA” value is given as “did not detect any significant increase (two-fold or less)”. Besides, the “poisoning of mammalian topoisomerase I” value in [4] was “did not poison mammalian topoisomerase I”. The “inhibition of colon cancer proliferation in vivo” value in data set [5] is given as “exhibited activity but was not as effective as 217”.
As to `NC[C@@H]1CCN(c2cc3c(cc2F)c(=O)c(C(=O)O)cn3Cc2ccc(-c3ccccc3)cc2)C1` [Compound 065], the “anti-proliferative activity, fold higher than that of 217” value in data set [6] was 2-5 fold.
In the case of `COc1c(N2CC[C@@H](CN)C2)c(F)cc2c(=O)c(C(=O)O)cn(Cc3ccc(-c4ccccc4)cc3)c12` [Compound 217, (S)-1-([1,1′-biphenyl]-4-ylmethyl)-7-(3-(aminomethyl)pyrrolidin-1-yl)-6-fluoro-8-methoxy-4-oxo-1,4-dihydroquinoline-3-carboxylic acid], the IC50 is 32.2 µM on calf topoisomerase I; 1370 ± 10.1 µM against E. coli DNA gyrase; 128 ± 4.7 µM on human topoisomerase II [2] (setting [8]); 128 ± 4.7 µM on human topoisomerase II [2] (setting [9]); 128 µM on human topoisomerase II [2] (setting [10]); 26 ± 0.5 µM at human topoisomerase I (setting [11]). Also, the IC50 at human topoisomerase I (setting [12]) was found to be 26.5 µM. For the same molecule, the aqueous solubility entry in “Aqueous solubility” is recorded as “limited aqueous solubility”. Moreover, the “effect on animal weight gain” value in [1] is reported as “did not have any significant effect on animal weight gain”. The tolerability result in [1] was “well-tolerated”. The GI50 with 60 cancer cell lines worked out at 1.9 µM. The “comparison of GI50 and LD50 values with etoposide (NCI's COMPARE program)” value with 60 cancer cell lines is reported as “significantly more effective than etoposide”. In the data set with 60 cancer cell lines, this molecule showed a mean growth of 40.3%. Further, the “increase in the amounts of linear DNA” value at human topoisomerase II [3] is reported as “did not detect any significant increase (two-fold or less)”. Moreover, the “poisoning of mammalian topoisomerase I” value in data set [4] is recorded as “did not poison mammalian topoisomerase I”. Also, the “inhibition of colon cancer proliferation in vivo” value in data set [5] is “inhibited the proliferation of colon cancer in vivo as well as fluorouracil (5-FU)”.
